This note sets out measurements from patent publication US9546144B2, “Bifunctional compounds” (University of Pittsburgh—of the Commonwealth System of …, priority 2011, dated 2017).

Data set [1] in a line: log P by shake-flask method. It is filed as physicochemical. As to conditions: n-octanol/water, rt (23.5° C.), average of 3 trials, read-out: log P (octanol-water partition coefficient). As to the method: Determination of log P Value of 3.
The log P (octanol-water partition coefficient) was determined using the shake-flask method. Three determinations were made. A representative procedure is as follows: a 250-mL separatory funnel was charged with a solution of 3 (50.0 mg) in water (50.0 mL) and n-octanol (50.0 mL). The funnel was capped and inverted 100 times. The funnel and contents were left to stand at rt (23.5° C.) for 40 h. Aliquots of both phases were analyzed by UV/VIS (214 nm for the aqueous layer and 218 nm for the octanol layer), and the concentration in each layer was determined using previously generated calibration curves. In the case of the aqueous layer, a 10-fold dilution was necessary prior to measurement. All measurements were run in triplicate. The log P was determined as log ([3]octanol/[3]aqueous), and the average log P value from the 3 trials was −0.87.

The test system of data set [2] is C57BL/6NTac mice. In words: radiation pulmonary fibrosis and survival after 20 Gy thoracic irradiation. It is filed as in vivo, mouse. As to conditions: in drinking water. An excerpt: FIG. 23. MMS350 in drinking water decreases fibrosis in the lungs of thoracic irradiated (20 Gy) mice.
For lung irradiation, mice were irradiated to the thoracic cavity with shielding of the head and neck region and abdomen and lower body according to published methods. Animals received 20 Gy single fraction thoracic irradiation and were then maintained according to IACUC directed laboratory conditions. Mice were sacrificed at serial time points after thoracic irradiation including pre-irradiation, days 2, 7, 14, 28, 50, 75, 100, 110, 150 and 200 post-irradiation. Lungs were removed and sagittal sections assayed for percent of lung replaced by fibroblasts and organizing alveolitis according to published methods.
Lungs from irradiated and luc+ cell line injected mice were removed and serial sectioned. Sections were stained for luc+, GFP+ cells, BrdU incorporation, and for quantitation of percent lung replaced by fibrosis (organizing alveolitis) according to published methods.
Mice were injected intra-peritoneally with MMS350 or JP4-039 (GS-nitroxide) in 50% cremphor/50% ethanol according to published methods. For long-term administration of MMS350, the drug was administered in water bottles with bottles changed every 7 days. The dose of drug per bottle was 100 μM MMS350 starting on day 88. […]

The nature of data set [3]: storage in 25% w/w solutions of 3 and NMP. The data set is classed as physicochemical. As to conditions: 25% w/w 3 and NMP at −20° C. The protocol: Because sulfoxide 3 is a solid, it would have to be mixed with an appropriate water-soluble cosolvent to act as a compound storage additive. NMP was chosen for exploring this potential application due to its thermal stability and low toxicity. […] The compound test set (FIG. 2) was stored in 25% w/w solutions of 3 and NMP for 6 weeks at −20° C.

Data set [4] relates to bone marrow stromal cell line derived from C57BL/6NTac mice. The data set is described as follows: in vitro clonogenic radiation survival curves. The data set is classed as cell-based, mouse. As to conditions: 100 μM added 10 min after irradiation; control 1.9±0.1, p=0.0444. As to the method: FIG. 12. In vitro radioprotection and mitigation of bone marrow stromal cells. In vitro survival curves were performed using a bone marrow stromal cell line derived from C57BL/6NTac mice. Cells were incubated in 100 μM MMS350 for one hour before irradiation or was added to the cells 10 min after irradiation. Cells were irradiated to doses ranging from 0 to 8 Gy, plated in 4 well tissue culture plates, incubated for 7 days at 37° C. in a humidified CO2 incubator, and stained with crystal violet. Colonies of greater than 50 cells were counted and analyzed using a linear quadratic model or single-hit, multi-target model.
The murine C57BL/6 bone marrow stromal cell line (Epperly M W, Sikora C A, Defilippi S, Gretton J E, Greenberger J S. Bone marrow origin of myofibroblasts in irradiation pulmonary fibrosis. Am J Resp Molecular Cell Biology 2003; 29:213-224) and its use in clonogenic radiation survival curves has been described (Epperly M W, Gretton J E, Bernarding M, Nie S, Rasul B, Greenberger J S. Mitochondrial localization of copper/zinc superoxide dismutase (Cu/ZnSOD) confers radioprotective functions in vitro and in vivo. Radiation Research 2003; 160:568-578).
Cell lines were irradiated at dose rate of 70 cGy per minute using a Cesium Gamma Cell Irradiator according to published methods. […]

Data set [5] has as its system C57BL/6NTac mice. In words: total body irradiation survival (hematopoietic syndrome). It is filed as in vivo, mouse. As to conditions: 9.5 Gy. As to the method:
FIG. 11. MMS350 was dissolved in PBS and injected IP at 20 mg/kg. The mice were irradiated to 9.5 Gy total body irradiation and then injected at 4 or 24 hr after irradiation.
FIG. 13. In vivo mitigation of total body irradiation by MMS350. MMS350 was dissolved in water at a concentration of 2 mg/ml. C57BL/6NTac mice (n=15/group) were irradiated to 9.5 Gy total body irradiation and injected intraperitoneally with 10 mg/kg of MMS350 at 4 or 24 hr. after irradiation. The mice were followed for the development of the hematopoietic syndrome at which time the mice were sacrificed.
MMS350 was delivered by intraperitoneal injection to C57BL/6 mice (n=15/group) before or after the 9.5 Gy of total body irradiation (a dose which kills at least 50% of mice at 30 days) and indicative of death from the hematopoietic syndrome (bone marrow failure).
Mice were irradiated using JL Shepherd Mark 1 Model 68 irradiator to 9.25 total body irradiation dose or a Varian Linear Accelerator (Varian Medical Systems, Inc, Palo Alto, Calif.) to 20 Gy for pulmonary irradiation according to published methods (2, 10, 13).
Mice were injected intra-peritoneally with MMS350 or JP4-039 (GS-nitroxide) in 50% cremphor/50% ethanol according to published methods. For long-term administration of MMS350, the drug was administered in water bottles with bottles changed every 7 days. The dose of drug per bottle was 100 μM MMS350 starting on day 88. The estimated total amount consumed by each animal daily was 10.9 μg based on a mouse drinking 5 ml of water per day. Chimeric mice irradiated to the thoracic cavity were placed 30 days later on MMS350 in water containing 100 mM MMS350. On day 88 after thoracic irradiation of non-chimeric mice, mice were placed on […] MMS350 in drinking water.

Turning to `CC1(C[S+]([O-])CC2(C)COC2)COC1` [compound 3, 3,3′-Sulfinylbis(methylene)bis(3-methyloxetane)], the logP at 40 h in data set [1] is -0.87. Moreover, in the data set on C57BL/6NTac mice [2], the “survival of thoracic irradiated mice” value is “significantly increased survival”. Further, the “behaviour of 3 in the storage solution” value in data set [3] is “partly precipitated from the solution”. Further, in data set [4], the “D0 of the survival curve” value was 2.4±0.3. In addition, the “survival after total body irradiation” value is given as “significantly increased survival” in the data set on C57BL/6NTac mice [5] (10 mg/kg intraperitoneally 4 hr after irradiation, p=0.0092) and “significantly increased survival” in the data set with C57BL/6NTac mice [5] (10 mg/kg intraperitoneally 24 hr after irradiation, p=0.0097). In the data set on C57BL/6NTac mice [5] (intraperitoneal injection before irradiation), the “protection against total body irradiation” value is “protector when delivered prior to irradiation”.
